Laboratory results reported in PMC5585923, “Isolation and characterization of the compounds responsible for the antimutagenic activity of Combretum microphyllum (Combretaceae) leaf extracts” (BMC Complementary and Alternative Medicine, 2017).
In brackets after ≈: the same amount, converted by molar mass. Like-named read-outs stand apart in the source and are kept apart here.

Tests used:
[1] = tested on: Salmonella typhimurium TA98; assay: Ames test, mutagenicity, TA98
[2] = tested on: Salmonella typhimurium TA100; assay: Ames test, mutagenicity, TA100
[3] = DPPH free radical scavenging (antioxidant) assay; conditions: tested 100 to 0.048 μg/ml
Protocol: The DPPH free radical scavenging spectrophotometric method described by Mensor et al. and modified by Aderogba et al. was used to evaluate the quantitative antioxidant activity. Reactions were carried out in 96-well microtitre plates and each of the isolated compounds was tested at varying concentrations ranging from 100 to 0.048 μg/ml. Blank solutions were prepared with methanol only while the negative control was DPPH solution (20 μl plus 50 μl methanol). Test sample solution contained compounds serially diluted in methanol. Methanol served as a blank for the microplate reader and the decrease in absorbance was measured at 515 nm. Percentage antioxidant activity (AA%) values were calculated from the absorbance values using the formula: AA%=100−Abssample–Absblank×100/Abscontrol
(Abs sample is the absorbance of the sample, Abs blank is the absorbance of the blank and Abs control is the absorbance of the control). L-ascorbic acid (vitamin C) was used as a positive control (antioxidant agent). The EC50 value, defined as the concentration of the sample leading to 50% reduction of the initial DPPH concentration, was calculated from the separate linear regression of plots of the mean percentage of the antioxidant activity against concentration of the test extracts obtained from the three replicate assays. The results are expressed as EC50 values obtained from the regression plots.

MTT cytotoxicity assay = assay type: cell-based; conditions: human; for viability at 2 days, 200 μg/ml: 200 μg/ml (highest concentration tested), read-out: percentage cell viability
Protocol: (§1) Briefly, the cells were maintained in minimal essential medium supplemented with 10% foetal calf serum and sodium pyruvate. Cell suspensions were prepared from confluent monolayer cultures and plated at a density of 5 × 10^4 cells/ml and a total of 200 μl of the cell suspension was plated in a 96-well culture plate. After incubation at 37 °C in a 5% CO2 incubator, the cells were treated with different concentrations of the isolated compounds ranging from 10 to 200 μg/ml and incubated for 2 days. Doxorubicin chloride was used as the positive control. The wells were washed with PBS and fresh medium (200 μl) was then added to the wells. MTT (Sigma) dissolved in PBS (30 μl) was added to each well and incubated for 4 h at 37 °C. The medium was removed and MTT formazan crystals were dissolved in 50 μl DMSO. The amount of MTT reduction was measured immediately by detecting the absorbance using a microplate reader (BioTek Synergy, Analytical and Diagnostic Products, South Africa) at a wavelength of 570 nm. The percentage of cell viability was calculated using the formula below: %cell viability=Mean Absorbance of sample/Mean Absorbance of control×100
(§2) The intensity of the MTT formazan produced by living metabolically active cells is directly proportional to the number of live cells present (Mosmann, [14]).

[4] = tested on: human hepatocellular carcinoma (C3A) cells; assay: MTT cytotoxicity assay; assay type: cell-based; conditions: Homo sapiens; C3A cells, 200 μg/ml; read-out: inhibition of cell growth
Protocol: as §1, §2

[5] = set-up: method as in earlier work; conditions: 100 μg/ml, cell-free system, ref 22 Manna et al.; cited from earlier work
[6] = tested on: Ehrlich ascites carcinoma (EAC) cell line; set-up: method as in Ramesh and colleagues (2012); conditions: EAC cells, 100 μg/ml, ref Ramesh and colleagues (2012); cited from earlier work
[7] = tested on: Dalton's lymphoma (DLA) cell line; set-up: method as in Ramesh and colleagues (2012); conditions: DLA cells, 100 μg/ml, ref Ramesh and colleagues (2012); cited from earlier work
[8] = tested on: Salmonella typhimurium TA102; assay: Ames test, antimutagenicity against MMC, TA102; conditions: for antimutagenic activity: TA102, against MMC
Protocol: (§3) Briefly, 100 μl of bacterial stock were incubated in 20 ml of Oxoid Nutrient broth for 16 h at 37 °C on a rotary shaker. Of this overnight culture, 0.1 ml was added to 2.0 ml of top agar (containing histidine-biotin) together with 0.1 ml test solution and 0.5 ml phosphate buffer. […] To determine antimutagenicity, the test solution contained 50 μl test sample and 50 μl positive control). The top agar mixture was poured over the surface of a minimal agar plate and incubated for 48 h at 37 °C. After incubation the numbers of revertant colonies (mutants) in each plate were counted.
(§4) Where T is the number of revertants per plate in the presence of mutagen and the test solution and M is the number of revertants per plate in the positive control. All cultures were prepared in triplicate (except for the solvent control where five replicates were used). Absence of toxicity was confirmed when a background layer of bacterial growth, which should normally be present was observed.

[9] = tested on: Salmonella typhimurium TA98; assay: Ames test, antimutagenicity against 4-NQO, TA98; conditions: for antimutagenic activity: TA98, against 4-NQO
Protocol: as §3, §4

[10] = tested on: Salmonella typhimurium TA100; assay: Ames test, antimutagenicity against 4-NQO, TA100; conditions: for antimutagenic activity: TA100, against 4-NQO
Protocol: as §3, §4

[11] = C3A hepatocellular carcinoma cells, C3A cells, MTT, 2 days, 10 to 200 μg/ml, read-out: LC50

With `CC1(C)CC[C@]2(C(=O)O)CC[C@]3(C)C(=CC[C@@H]4[C@@]5(C)C[C@@H](O)[C@H](O)[C@@](C)(CO)[C@@H]5CC[C@]43C)[C@@H]2C1` [Arjunolic acid, arjunolic acid] the “Mean number of revertant colonies per plate (±SD)” value (“Mean number … per plate (±SD)” for short) ([1]; TA98, 5 μg/ml) was 26.67 ± 1.15, the “Mean number … per plate (±SD)” value ([1]; TA98, 50 μg/ml) was 28.33 ± 3.78 and the “Mean number … per plate (±SD)” value ([1]; TA98, 500 μg/ml) was 33.00 ± 2.65. For the same compound, the “Mean number … per plate (±SD)” value ([2]; TA100, 5 μg/ml) was 107.33 ± 1.15, the “Mean number … per plate (±SD)” value ([2]; TA100, 50 μg/ml) was 104.33 ± 2.52 and the “Mean number … per plate (±SD)” value ([2]; TA100, 500 μg/ml) was 109.00 ± 8.72. The “EC50, DPPH free radical scavenging” value [3] was 6.25 ± 0.29 mg/L (≈ 12.8 µM), the CC50 at 2 days (MTT cytotoxicity assay; [11]) was 106 ± 5.11 mg/L and the inhibition at 200 µg/mL [4] was 66%. For the same compound, the “DPPH free radical scavenging activity” value [5] was “up to 80%”, the “inhibition of cell growth” value [6] was “up to 70%” and the “inhibition of cell growth” value [7] was “up to 70%”. The inhibition at 500 µg/mL ([8]; Salmonella enterica, TYPHIMURIUM, read-out: percentage antimutagenicity (inhibition of mutagenic effect of MMC), TA102, 500 μg/ml (highest concentration tested), MMC 1 μg/ml) was 44 ± 0.18%, the “percentage antimutagenicity (inhibition of mutagenic effect of MMC)” value ([8]; TA102, 500 μg/ml (highest concentration tested), MMC 1 μg/ml) was at most 43.78 ± 0.18% and the “antimutagenic activity” value [8] was “most active”. The inhibition at 500 µg/mL ([9]; Salmonella enterica, TYPHIMURIUM, read-out: percentage antimutagenicity (inhibition of mutagenic effect of 4-NQO), TA98, 500 μg/ml (highest concentration tested), 4-NQO 2 μg/ml) was 42 ± 9.6%, the “antimutagenic activity” value [9] was “most active” and the inhibition at 500 µg/mL ([10]; Salmonella enterica, TYPHIMURIUM, read-out: percentage antimutagenicity (inhibition of mutagenic effect of 4-NQO), TA100, 500 μg/ml (highest concentration tested), 4-NQO 1 μg/ml) was 36 ± 1.5%. For the same compound, the “percentage antimutagenicity (inhibition of mutagenic effect of 4-NQO)” value ([10]; TA100, 500 μg/ml (highest concentration tested), 4-NQO 1 μg/ml) was at most 35.84 ± 1.45% and the “antimutagenic activity” value [10] was “most active”.

With `CCCCCCCCCCCCCCCCCCCCCCCCO` [n-Tetracosanol, n-tetracosanol] the “Mean number … per plate (±SD)” value ([1]; TA98, 5 μg/ml) was 23.67 ± 4.51, the “Mean number … per plate (±SD)” value ([1]; TA98, 50 μg/ml) was 35.67 ± 9.71 and the “Mean number … per plate (±SD)” value ([1]; TA98, 500 μg/ml) was 30.00 ± 7.81. The “Mean number … per plate (±SD)” value ([2]; TA100, 5 μg/ml) was 127.00 ± 7.21, the “Mean number … per plate (±SD)” value ([2]; TA100, 50 μg/ml) was 121.33 ± 2.52 and the “Mean number … per plate (±SD)” value ([2]; TA100, 500 μg/ml) was 125.00 ± 8.18. The “EC50, DPPH free radical scavenging” value [3] was over 100 mg/L, the viability at 2 days, 200 μg/ml (MTT cytotoxicity assay; C3A hepatocellular carcinoma cells, C3A cells) was 59.7 ± 7.23% and the CC50 at 2 days (MTT cytotoxicity assay; [11]) was over 200 mg/L. The “antimutagenic activity” value [8] was “least active compound”, the “antimutagenic activity” value [9] was “least active compound” and the “antimutagenic activity” value [10] was “least active compound”.

With `CCCCCCCCCCCCCCCCCCCC(=O)O` [Eicosanoic acid, eicosanoic acid] the “Mean number … per plate (±SD)” value ([1]; TA98, 5 μg/ml) was 28.67 ± 5.51, the “Mean number … per plate (±SD)” value ([1]; TA98, 50 μg/ml) was 29.33 ± 4.04 and the “Mean number … per plate (±SD)” value ([1]; TA98, 500 μg/ml) was 27.77 ± 1.53. The “Mean number … per plate (±SD)” value ([2]; TA100, 5 μg/ml) was 112.33 ± 2.89, the “Mean number … per plate (±SD)” value ([2]; TA100, 50 μg/ml) was 102.67 ± 4.73 and the “Mean number … per plate (±SD)” value ([2]; TA100, 500 μg/ml) was 108.67 ± 5.03. The “EC50, DPPH free radical scavenging” value [3] was over 100 mg/L, the CC50 at 2 days (MTT cytotoxicity assay) was over 200 mg/L and the viability at 2 days, 200 μg/ml (MTT cytotoxicity assay; C3A cells) was 50.1 ± 6.21%.

In the case of `O=C1O[C@H]([C@@H](O)CO)C(O)=C1O` [Ascorbic acid, L-ascorbic acid, reference compound], the “EC50, DPPH free radical scavenging” value [3] is reported as 0.51 ± 0.08 mg/L (≈ 2.9 µM).

For `COc1cccc2c1C(=O)c1c(O)c3c(c(O)c1C2=O)C[C@@](O)(C(=O)CO)C[C@@H]3O[C@H]1C[C@H](N)[C@H](O)[C@H](C)O1` [Doxorubicin, Doxorubicin chloride, reference compound], the CC50 at 2 days (MTT cytotoxicity assay) was 0.64 ± 0.032 µM.
